From publication PMC9852121, “Targeted α-therapy using astatine (^211At)-labeled PSMA1, 5, and 6: a preclinical evaluation as a novel compound” (European Journal of Nuclear Medicine and Molecular Imaging, 2022)
Read-outs that look alike come from different tables or passages of the source.

Legend:
[1] = set-up: method as in PMID 27230930; conditions: cited from earlier work
[2] = Histopathological evaluation of organs in normal ICR mice; format: in vivo; conditions: for Histopathology of kidney parenchyma, salivary gland, stomach, thyroid, spleen and small intestine: 8 weeks after 0.4 MBq
Method: (§1) The excised organs and tissues were fixed in a 10% neutral buffered formalin solution. After fixation, paraffin sections were prepared and stained with hematoxylin and eosin. Specimens were evaluated using an integrated microscope (BZ-X810; Keyence Corporation, Osaka, Japan). Histological evaluation was performed by a toxicopathology specialist with the support of KAC Co. Ltd. (Kyoto, Japan).

[3] = Biodistribution in normal ICR mice; format: in vivo; conditions: 3 h post-injection
Description: (§2) Non-obese diabetic/severe combined immunodeficiency (NOD/SCID) mice (5 weeks old, male) were purchased from Charles River Japan, Inc. (Atsugi, Japan). LNCaP cells were suspended in a 1:1 mixture of medium and Matrigel (Corning, USA), subcutaneously implanted into the unilateral flank of the mice (approximately 6–10 × 10^6 cells), and used approximately 5 weeks later (range, 4–8 weeks). Institute of Cancer Research (ICR) mice (6 weeks old, male) were purchased from Japan SLC, Inc. (Shizuoka, Japan) and used as a non-tumor-bearing cohort for the evaluation of biodistribution and histology.
High PSMA expression was already confirmed in LNCaP xenografts in our previous study. […] Urine excretion was determined from absorption to filter paper or by urine collection in the cage, and feces were collected from the cage. Radioactivity was measured using a 2480 Wizard^2 γ counter. The detection efficiency for ^211At with the γ counter was calibrated by measurement of the ^211At source whose radioactivity was determined with a Ge semiconductor detector (BE2020, Mirion Technologies (Canberra), Connecticut, USA). Uptake was calculated as the percentage of injected dose (%ID).

[4] = Urine analysis with urinalysis test strips (protein) in normal ICR mice; format: in vivo; conditions: for Urine test of protein: individual animals No. 1-3
LNCaP xenograft [5] = assay: Biodistribution in LNCaP xenograft model (NOD/SCID mice); format: in vivo; conditions: for Tumor retention (uptake): about 0.11-0.12 MBq; for Kidney uptake, comparison [211At]PSMA5 versus [211At]PSMA6: 3 h post-injection, NOD/SCID mice; for Total excretion in the feces / Total excretion in the urine: Fig. 3 legend, mouse strain not given
Description: as §2
High PSMA expression was already confirmed in LNCaP xenografts in our previous study. The brain, thyroid, salivary gland, lung, heart, liver, spleen, pancreas, stomach, small intestine, colon, kidney, bone, testis, blood, urine, feces, and tumor were excised and weighed to evaluate biodistribution after euthanasia at 3 and 24 h after administration. Urine excretion was determined from absorption to filter paper or by urine collection in the cage, and feces were collected from the cage. Radioactivity was measured using a 2480 Wizard^2 γ counter. The detection efficiency for ^211At with the γ counter was calibrated by measurement of the ^211At source whose radioactivity was determined with a Ge semiconductor detector (BE2020, Mirion Technologies (Canberra), Connecticut, USA). Uptake was calculated as the percentage of injected dose (%ID).

LNCaP xenograft [6] = assay: Treatment effect in LNCaP xenograft mice (tumor size, body weight); format: in vivo, NOD/SCID mice; conditions: single administration 0.4 MBq, versus saline
Description: as §2
LNCaP xenograft mice (body weight = 21.8 ± 5.98 g) were administered [^211At]PSMA5 (0.39 ± 0.03 MBq, 0.002 μg, n = 12), [^211At]PSMA1 (0.40 ± 0.07 MBq, 0.002 μg, n = 5), or saline (n = 10). […] Non-radiolabeled PSMA5 (high mass, 0.02 μg; low mass, 0.002 μg) and PSMA1 (high mass, 0.02 μg; low mass, 0.002 μg) were also administered to LNCaP xenograft mice (each n = 3) and compared with saline-injected mice (n = 3) to assess the absence of antitumor effect by the PSMA compound itself. […] The body weight (g) was also monitored.

[7] = tested on: LNCaP cells (high expression of PSMA); assay: In vitro cellular uptake analysis (LNCaP versus PC-3 cells); format: cell-based, human; conditions: 30 min incubation, Fig. 2; for Cellular uptake, LNCaP cells compared with PC-3 cells: LNCaP high, PC-3 low PSMA expression
Description: Human prostate cancer cell lines, prostatic carcinoma-3 (PC-3) (low expression of PSMA), and lymph node carcinoma of the prostate (LNCaP) (high expression of PSMA) were obtained from the RIKEN Cell Bank (Tsukuba, Japan). Cells were maintained in a culture medium, Roswell Park Memorial Institute 1640 medium (FUJIFILM Wako Pure Chemical Corporation, Osaka, Japan), supplemented with 10% heat-inactivated fetal bovine serum (Gibco) and 1% penicillin-streptomycin (FUJIFILM Wako Pure Chemical). The medium for LNCaP was supplemented with 1% sodium pyruvate (FUJIFILM Wako Pure Chemical) in a culture medium. Cells were seeded in 24-well plates (5 × 10^4/well) and cultured for 2 days. After washing twice with phosphate-buffered saline (PBS) (−), the culture medium was changed to Hanks’ balanced salt solution (+). After treatment with [^211At]PSMA1 or [^211At]PSMA5 (approximately 30–50 kBq/well), cells were washed twice with PBS (–). After washing, all cells were lysed with 0.1 N sodium hydroxide, and the radioactivity of the cells was calculated using a 2480 Wizard^2 γ counter (Perkin Elmer, MA, USA). Protein levels were measured using a plate reader (MultiScan FC, Thermo Fisher) and the BCA Protein Assay Kit (FUJIFILM Wako Pure Chemical). Uptake (%uptake/mg protein) was compared between PC-3 and LNCaP cells at 30 min after incubation with [^211At]PSMA1 or [^211At]PSMA5.

[8] = Histopathological evaluation of organs in LNCaP xenograft mice; format: in vivo; conditions: LNCaP xenograft NOD/SCID mice, 3 and 6 weeks after 0.4 MBq
Method: as §1

[9] = In vivo deastatination / metabolites in blood and urine; set-up: species or system mice
LNCaP xenograft [10] = assay: Planar imaging with γ camera in LNCaP xenograft mice; format: in vivo, NOD/SCID mice; conditions: 3 and 24 h post-injection
Method: Planar imaging was performed using a γ camera system (E-cam, Siemens) at 3 and 24 h after administration, targeting the X-rays emitted from the daughter nuclide ^211Po (energy window: 79 keV ± 20%). Image analysis was performed by setting the regions of interest in the tumor and kidneys using AMIDE software (version 1.0.4).

[11] = Plasma BUN and creatinine (renal function) in ICR mice; format: in vivo; conditions: 8 weeks after administration, Supplementary Fig. S2
Method: Plasma was obtained by centrifuging a portion of the blood sample collected at the time of euthanasia and was measured using a dry clinical chemistry analyzer (SPOTCHEM D-00 QR D-02; ARKRAY, Inc., Kyoto, Japan). Blood urea nitrogen (BUN) and creatinine (Cre) levels were also measured. Cre values less than 0.2 were considered 0.2 in the statistical analysis.

[12] = set-up: method as in PMID 27789722, PMID 27889802; conditions: humans; cited from earlier work
[13] = set-up: method as in PMID 27789722, PMID 27889802; conditions: mice; cited from earlier work

SMILES | Histopathology of kidney parenchyma, salivary gland, stomach, thyroid, spleen and small intestine [2] | Kidney uptake, comparison [211At]PSMA5 versus [211At]PSMA6 [3] | Urine test of protein ([4]; Day 21 after 0.4 MBq) | Urine test of protein ([4]; Day 38 after 0.4 MBq) | Tumor retention (uptake) (LNCaP xenograft [5]; 3 h after administration) [%ID/g] | Kidney uptake, comparison [211At]PSMA5 versus [211At]PSMA6 (LNCaP xenograft [5]) | Total excretion in the feces (LNCaP xenograft [5]; 24 h) [%ID] | Total excretion in the urine (LNCaP xenograft [5]; 24 h) [%ID] | Tumor retention (uptake) (LNCaP xenograft [5]; 24 h after administration) [%ID/g] | Changes in body weight (LNCaP xenograft [6]) | Treatment effect on tumor growth (tumor size) (LNCaP xenograft [6]) | Cellular uptake, LNCaP cells compared with PC-3 cells [7] | Total excretion in the urine (LNCaP xenograft [5]; 3 h) [%ID] | further results
O=C(O)CC[C@H](NC(=O)NC(CCCCNC(=O)c1ccc([211At])cc1)C(=O)O)C(=O)O (stereo partly drawn) [^211At-6, (2S)-2-(3-(1-carboxy-5-(4-211At-astatobenzamido)pentyl)ureido)-pentanedioic acid] |  |  |  |  |  |  |  |  |  |  |  |  |  | Kidney findings after treatment ([1]; 1.5 MBq): subcortical atrophy, and degenerative loss of proximal tubules; Proteinuria ([1]; animals treated with 1.5 MBq): developed proteinuria 1–2 months after treatment; Proteinuria ([1]; animals treated with 37 kBq): developed mild proteinuria that was later resolved
O=C(O)CC[C@H](NC(=O)N[C@@H](CCCCNC(=O)[C@@H](Cc1ccc2ccccc2c1)NC(=O)c1ccc(CNC(=O)[C@H](CCC(=O)O)NC(=O)[C@H](CCC(=O)O)NC(=O)Cc2ccc([211At])cc2)cc1)C(=O)O)C(=O)O [[^211At]PSMA6] | no significant changes | similar | 30 (1+) mg/dl | 30 (1+) mg/dl | 19.1 ± 4.5 | similar | 9.78 ± 0.79 | 6.20 ± 1.51 | 18.1 ± 2.2 |  |  |  |  | Urine test of protein ([4]; Day 24 after 0.4 MBq): 100 (2+) mg/dl; Urine test of protein ([4]; Day 31 after 0.4 MBq): 30 (1+) mg/dl; Urine test of protein ([4]; Day 45 after 0.4 MBq): 30 (1+) mg/dl; Retention in the kidney, comparison with [211At]PSMA5 (LNCaP xenograft [5]; 24 h post-injection): higher retention in the kidney
O=C(O)CCC(NC(=O)NC(CCCCNC(=O)C(Cc1ccc2ccccc2c1)NC(=O)c1ccc(CNC(=O)CCC(=O)NCCCCC(NC(=O)CNC(=O)Cc2ccc([211At])cc2)C(=O)O)cc1)C(=O)O)C(=O)O (centres unmarked) [[^211At]PSMA1] |  |  |  |  | 12.4 ± 4.8 |  | 14.0 ± 4.8 | 14.7 ± 10.0 | 8.7 ± 3.5 | No significant changes in body weight | good treatment effect | more highly incorporated into LNCaP cells | 0.49 ± 0.37 | Kidney excretion, comparison with [211At]PSMA5 and [211At]PSMA6 (LNCaP xenograft [5]; mouse, in vivo): superior
O=C(O)CCC(NC(=O)NC(CCCCNC(=O)C(Cc1ccc2ccccc2c1)NC(=O)c1ccc(CNC(=O)C(CCC(=O)O)NC(=O)C(CCC(=O)O)NC(=O)Cc2ccc([211At])cc2)cc1)C(=O)O)C(=O)O (centres unmarked) [[^211At]PSMA5] | no significant changes | similar | 30 (1+) mg/dl | 30 (1+) mg/dl | 30.6 ± 17.8 | similar | 35.2 ± 9.2 | 15.33 ± 6.3 | 40.7 ± 2.6 | No significant changes in body weight | excellent tumor growth suppression | more highly incorporated into LNCaP cells | 8.26 ± 5.00 | Mice with regenerated tubules in the cortical area of the kidney ([2]; 2 weeks after high dose 1 MBq): one out of four; Histopathology of salivary glands and stomach [8]: No significant changes; Histopathology of the kidneys [8]: regenerated tubules were observed in the cortical area in all NOD/SCID mice; Metabolites, including astatide ions, present in urine (deastatination) ([9]; 3 h after injection, mice): not more than 1.0 % of the injected doses; Radioactivity in the blood and urine from intact molecules ([9]; 3 h post injection): most of the radioactivity observed in the blood and urine was from intact molecules; Proteinuria ([4]; 8 weeks after administration): did not observe proteinuria; Urine test of protein ([4]; Day 10 after 0.4 MBq): 30 (1+) mg/dl; Urine test of protein ([4]; Day 14 after 0.4 MBq): 30 (1+) mg/dl; Cellular uptake, comparison between compounds [7]: higher uptake than [^211At]PSMA1; Uptake in the tumor xenografts and kidneys on planar images (LNCaP xenograft [10]): High uptake; BUN and Cre levels [11]: did not observe proteinuria or increased BUN and Cre levels; Tumor uptake, comparison with [211At]PSMA6 (LNCaP xenograft [5]; mouse, in vivo): higher tumor uptake than [^211At]PSMA6; Tumor-to-kidney uptake, comparison with [211At]PSMA6 (LNCaP xenograft [5]; mouse, in vivo): better tumor-to-kidney uptake
O=C(O)CC[C@H](NC(=O)N[C@@H](CCCCNC(=O)[C@H](Cc1ccc2ccccc2c1)NC(=O)c1ccc(CNC(=O)[C@H](CCC(=O)O)NC(=O)[C@H](CCC(=O)O)NC(=O)c2ccc([18F])nc2)cc1)C(=O)O)C(=O)O [[^18F]PSMA-1007] |  |  |  |  |  |  |  |  |  |  |  |  |  | Urine excretion in PET [12]: minimal; Urine excretion in PET [13]: high urine excretion
